The values that follow come from ChEMBL document CHEMBL1773025, “Synthesis of tetrahydronaphthalene lignan esters by intramolecular cyclization of ethyl p-azidophenyl-2-phenylalkanoates and evaluation of the growth inhibition of human tumor cell lines” (2011).

Molecules are shown by their SMILES. Calls of active or inactive are those of the source. No cut-off for these calls is given here. Where only a bound is given, the exact number is not on record here.

The subject of one test is MCF7. Put plainly: Growth inhibition of human MCF7 cells after 48 hrs by sulforhodamine B assay. It counts as functional. The note with it: MCF7, 48 h.
For another test, the system named is SF-268. Briefly: Growth inhibition of human SF268 cells after 48 hrs by sulforhodamine B assay. It counts as functional. Particulars: SF-268, 48 h.
In a further test the test system is UACC-62. Put plainly: Growth inhibition of human UACC62 cells after 48 hrs by sulforhodamine B assay. The class given is functional. Particulars: UACC-62, 48 h.
The subject of the next test is NCI-H460. Briefly: Growth inhibition of human NCI-H460 cells after 48 hrs by sulforhodamine B assay. The class given is functional. Particulars: NCI-H460, 48 h.
In the next test the test system is WI-38 VA13. Put plainly: Growth inhibition of human VA13 cells after 48 hrs by sulforhodamine B assay. It counts as functional, cell-based.
Another test deals with HepG2. Put plainly: Growth inhibition of human HepG2 cells after 48 hrs by sulforhodamine B assay. It counts as functional, cell-based.

Regarding `O=[N+]([O-])c1cccc(CCCO)c1`, the GI50 with MCF7, in the test on SF-268, in the test with UACC-62 and in the test with NCI-H460 was more than 250 µM each time.
As for `CCOC(=O)C(CCCc1cccc(N=[N+]=[N-])c1)c1ccccc1` (centres undefined), the GI50 is 119 µM in the test on MCF7, more than 150 µM in the test with SF-268 and more than 150 µM with NCI-H460.
Regarding `CCOC(=O)C(CCc1ccc([N+](=O)[O-])cc1)c1ccccc1` (centres undefined), the GI50 with MCF7 was 134 µM; in the test on SF-268, more than 150 µM; with NCI-H460, more than 150 µM.
As for `CCOC(=O)C(CCc1cccc(N)c1)c1ccccc1` (centres undefined), the GI50 in the test with MCF7 is 104 µM; in the test on SF-268, 159 µM; in the test with UACC-62, 102 µM; with NCI-H460 it was 132 µM.
`CCOC(=O)C(CCCc1cccc([N+](=O)[O-])c1)c1ccccc1` (centres undefined): the GI50 in the test on MCF7 was 149 µM; with SF-268 it was more than 150 µM; with NCI-H460, more than 150 µM.
As to `CCOC(=O)C(CCc1cccc(N=[N+]=[N-])c1)c1ccccc1` (centres undefined), the figures for the 50% growth inhibitory concentration (GI50) in the test on MCF7, in the test with SF-268 and in the test on NCI-H460 were 120 µM, more than 160 µM and more than 160 µM, respectively.
As for `O=[N+]([O-])c1ccc(CCI)cc1`, the results for the GI50 in the test with MCF7, with SF-268 and in the test with NCI-H460 were 55.8 µM, 95.7 µM and 112 µM, respectively.
Taken in the same sequence, the figures for `CCOC(=O)C(CCCc1ccc(N=[N+]=[N-])cc1)c1ccccc1` (centres undefined) were more than 150 µM, more than 150 µM and more than 150 µM.
For the compound `CCOC(=O)C(CCc1ccc(N)cc1)c1ccccc1` (centres undefined), the concentration for 50% growth inhibition (GI50) in the test on MCF7 worked out at 36.3 µM; in the test on SF-268, 51.8 µM; in the test with UACC-62 it was 23.3 µM; in the test on NCI-H460, 40.8 µM.
With `CCOC(=O)C(CCc1cccc([N+](=O)[O-])c1)c1ccccc1` (centres undefined), the GI50 in the test with MCF7 was 92.7 µM; in the test with SF-268, more than 150 µM; in the test on NCI-H460, 149 µM.
As for `CCOC(=O)C1CCC(c2ccc(N)cc2)c2ccccc21` (racemic), the “growth inhibition (GI)” value with WI-38 VA13 was “inactive”. Besides, the GI50 in the test with MCF7 came out at 117 µM; in the test with SF-268, 116 µM; with NCI-H460, 142 µM.
For the compound `COc1cc(C2c3c(cc4c(c3OC)OCO4)CC(COC(C)=O)C2COC(C)=O)cc(OC)c1O` (centres undefined), the “growth inhibition (GI)” value in the test with HepG2 is “inactive”.
For `CCOC(=O)C1CCC2(C=CC(=O)C=C2)c2ccccc21` (centres undefined), the results for the GI50 in the test with MCF7, in the test on SF-268 and in the test with NCI-H460 were 16.4 µM, 21.9 µM and 19.2 µM, respectively.
As for `CCOC(=O)C(CCCc1cccc(N)c1)c1ccccc1` (centres undefined), the GI50 was 109 µM with MCF7, more than 160 µM in the test on SF-268, 125 µM with UACC-62 and 154 µM with NCI-H460.
Turning to `COc1cccc2c1C(=O)c1c(O)c3c(c(O)c1C2=O)C[C@@](O)(C(=O)CO)C[C@@H]3O[C@H]1C[C@H](N)[C@H](O)[C@H](C)O1` [DOXORUBICIN], the GI50 stood at 42.8 µM in the test on MCF7, 0.094 µM in the test on SF-268 and 0.094 µM with NCI-H460.
As to `COC(=O)/C=C/c1ccc([N+](=O)[O-])cc1`, the GI50 in the test with MCF7 was 214 µM; in the test with SF-268, more than 240 µM; with NCI-H460 it was more than 240 µM.
With `CCOC(=O)C(CCc1ccc(N=[N+]=[N-])cc1)c1ccccc1` (centres undefined), the concentration for 50% growth inhibition (GI50) is 125 µM in the test with MCF7, more than 160 µM in the test on SF-268 and more than 160 µM in the test on NCI-H460.
In the case of `CCOC(=O)C(CCCc1ccc([N+](=O)[O-])cc1)c1ccccc1` (centres undefined), the concentration for 50% growth inhibition (GI50) stood at 16.4 µM with MCF7, 23.2 µM with SF-268 and 19.4 µM with NCI-H460.
Turning to `CCOC(=O)C(CCCc1ccc(N)cc1)c1ccccc1` (centres undefined), the GI50 in the test on MCF7 was 155 µM; with SF-268, more than 160 µM; in the test on UACC-62, more than 100 µM; in the test on NCI-H460 it was more than 160 µM.
`COC(=O)/C=C/c1cccc([N+](=O)[O-])c1`: the values for the 50% growth inhibitory concentration (GI50) with MCF7, with SF-268 and in the test with NCI-H460 were 74.1 µM, 180 µM and 175 µM, respectively.
